Strand notation (5' to 3'): a small letter for the sugar, then the base; units joined by * are phosphorothioate-linked, units joined directly phosphodiester-linked; [ ] holds rarer units or linkages, { } end groups; capitals alone tell only the bases. k = constrained ethyl (cEt); [5mC] = 5-methylcytosine; d = 2'-deoxy (DNA)
Assays:
human SMAD7 mRNA [1] = assay: Dose-dependent inhibition of human SMAD7 mRNA expression in Hep3B cells (Example 3, Study 1 and 2); format: cell-based; conditions: electroporation; for % inhibition of SMAD7 mRNA expression: approximately 16 hours; for IC50: Study 2 (740-20000 nM)
Experimental: The antisense oligonucleotides were tested in a series of experiments that had similar culture conditions as described below.
(§1) Cells were plated at a density of 20,000 cells per well and transfected using electroporation with 0.31 μM, 1.25 μM, 5.00 μM, or 20.00 μM concentrations of antisense oligonucleotide, as specified in the Tables below. ION 483663 was included in the assays for comparison. After a treatment period of approximately 16 hours, RNA was isolated from the cells and SMAD7 mRNA levels were measured by quantitative real-time PCR. Primer probe set RTS5062 was used to measure human SMAD7 mRNA levels. SMAD7 mRNA levels were adjusted according to total RNA content, as measured by RIBOGREEN®. Results are presented as percent inhibition of SMAD7 mRNA expression, relative to untreated control cells.
The half maximal inhibitory concentration (IC50) of each oligonucleotide is also presented.
as §1, with “0.74” for “0.31”, “2.22” for “1.25”, “6.67” for “5.00”, “below.” for “below. ION 483663 was included in the assays for comparison.”

human SMAD7 mRNA [2] = assay: Antisense inhibition of human SMAD7 mRNA expression in Hep3B cells by 3-10-3 cEt gapmers, 10,000 nM, electroporation (Example 2); format: cell-based; conditions: Hep3B cells, approximately 24 hours
How it was run: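 qRT-PCR (RTS5062) of SMAD7 mRNA, normalised to RIBOGREEN total RNA, gave percent inhibition relative to untreated controls. Hep3B cells at 20,000 per well received 10,000 nM oligonucleotide by electroporation, with ~24 h treatment.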

[3] = 740 nM, Study 2, relative to untreated control cells
[4] = electroporation with 10,000 nM antisense oligonucleotide, primer probe set RTS5062, relative to untreated control cells
[5] = electroporation with 10,000 nM antisense oligonucleotide, RTS5062, percent inhibition of SMAD7 mRNA relative to untreated control cells

Substance	% inhibition of SMAD7 mRNA expression (human SMAD7 mRNA [1]; [3]) [%]	% inhibition of SMAD7 mRNA expression (human SMAD7 mRNA [1]; 2220 nM, Study 2) [%]	% inhibition of SMAD7 mRNA expression (human SMAD7 mRNA [1]; 6670.0 nM, Study 2) [%]	% inhibition of SMAD7 mRNA expression (human SMAD7 mRNA [1]; 20000.0 nM, Study 2) [%]	IC50 (human SMAD7 mRNA [1]) [µM]	% Inhibition (human SMAD7 mRNA [2]; [4]) [%]	% inhibition of SMAD7 mRNA expression (human SMAD7 mRNA [2]; [4]) [%]	% Inhibition (human SMAD7 mRNA [2]; [5]) [%]	% inhibition of SMAD7 mRNA expression (human SMAD7 mRNA [2]; electroporation, 10,000 nM antisense oligonucleotide, RTS5062, relative to untreated control cells) [%]	% Inhibition (human SMAD7 mRNA [2]; electroporation with 10,000 nM antisense oligonucleotide, SMAD7 mRNA by RT-PCR (RTS5062), relative to untreated control cells) [%]
799159 (antisense kG*kT*kG*dT*dA*dT*dG*dA*dG*dT*dT*dG*dT*kA*kG*kA) [compound 799159]	43	55	78	90	19	56	–	–	–	–
799168 (antisense kG*k[5mC]*kT*dA*dA*dG*dA*dA*d[5mC]*dA*dG*dT*dG*kT*k[5mC]*kG) [compound 799168]	15	13	36	54	5	–	75	–	–	–
799312 (antisense k[5mC]*kA*kT*d[5mC]*dT*dT*dT*dA*dA*dG*d[5mC]*dA*d[5mC]*kG*k[5mC]*kT) [compound 799312]	23	46	49	69	4	–	–	66	–	–
799318 (antisense kG*kT*kG*dG*dA*dT*dT*dT*dG*dA*dA*dA*dA*kG*kG*kG) [compound 799318]	12	40	70	75	11	–	–	58	–	–
799321 (antisense kA*kT*k[5mC]*dT*dG*dG*dA*d[5mC]*dA*dG*dT*d[5mC]*dT*kG*k[5mC]*kT) [compound 799321]	0	5	36	67	< 0.7	–	–	–	93	–
799322 (antisense kG*kG*kA*dG*dG*dG*dT*dA*dT*dG*d[5mC]*dA*d[5mC]*kA*k[5mC]*kT) [compound 799322]	89	90	96	96	2	–	83	–	–	–
799364 (kT*k[5mC]*k[5mC]*dG*dA*dG*dT*dT*dA*dT*d[5mC]*d[5mC]*d[5mC]*k[5mC]*kA*kT; antisense) [compound 799364]	39	54	67	88	3	–	73	–	–	–
799365 (k[5mC]*kT*k[5mC]*d[5mC]*dG*dA*dG*dT*dT*dA*dT*d[5mC]*d[5mC]*k[5mC]*k[5mC]*kA; antisense) [compound 799365]	11	39	73	94	4	–	61	–	–	–
799366 (antisense kT*k[5mC]*kT*d[5mC]*d[5mC]*dG*dA*dG*dT*dT*dA*dT*d[5mC]*k[5mC]*k[5mC]*k[5mC]) [compound 799366]	18	39	64	76	8	–	70	–	–	–
799369 (antisense kA*k[5mC]*kT*d[5mC]*dA*d[5mC]*dT*dA*dA*dG*dT*d[5mC]*dT*k[5mC]*k[5mC]*kG) [compound 799369]	1	10	46	74	6	–	–	–	–	50

Source: patent US10517889B2, “Modulators of SMAD7 expression” (Ionis Pharmaceuticals, Inc., priority 2017, dated 2019)
